Data published in patent US10899739B2, “Macrophage migration inhibitory factor inhibitors, and methods of making and using same” (YALE UNIVERSITY, priority 2017, dated 2021).
Converted amounts (≈) assume the structure as drawn. “And” between values parts separate entries of the source, which are not always exact repeats. Equal values may be shown once. Read-outs that look alike come from different tables or passages of the source.

Key:
[1] = shake-flask; data for previously reported analogs of 1 and 2; cited from earlier work
MIF [2] = target: T1, MIF (Homo sapiens, UniProt P14174); assay: fluorescence polarization binding assay
T1 construct: made in house
T1 sequence (P14174 2-115 limits assumed): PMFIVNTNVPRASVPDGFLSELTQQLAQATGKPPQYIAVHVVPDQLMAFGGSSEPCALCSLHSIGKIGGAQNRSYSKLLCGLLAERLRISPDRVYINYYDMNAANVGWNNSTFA

MIF [3] = target: T1, MIF; assay: MIF tautomerase inhibition assay with 4-hydroxyphenylpyruvic acid (HPP) as substrate; format: biochemical
[4] = aqueous solubility, shake-flask procedure; format: physicochemical; settings: aqueous buffer, thermodynamic from solid, Britton-Robinson buffer pH 6.5, read-out: Aqueous Solubility S
Description: For the assaying, inhibition constants Ki were determined as before using 4-hydroxyphenylpyruvic acid (HPP) as the substrate (Cisneros, et al., 2016, Bioorg. Med. Chem. Lett. 26:2764-2767). Inhibitory activity is monitored by measuring formation of the borate complex of the enol product at 305 nm using a Tecan Infinite F500 plate reader. Binding constants Kd were also obtained for the new compounds using a fluorescence polarization assay (Cisneros, et al., 2016, J. Am. Chem. Soc. 138:8630-8638). […] Saturated solutions in Britton-Robinson buffer (pH 6.5) are filtered (Acrodisc syringe, 0.2 μm pore) and analyzed by UV-vis spectroscopy (Agilent 8453).

For `NCCOc1ccc2nc(-c3cn(-c4ccc(O)cc4)nn3)ccc2c1` [Compound 1c], the “Aqueous Solubility S” value [1] is given as 3.7 µg/mL.
In the case of “methyl 3-(4-hydroxyphenyl)-4,5-dihydroisoxazole-5-carboxylate [ISO-1]”, the Kd (MIF [2]; fluorescence polarization, new compounds and ISO-1, read-out: Binding Constants Kd) is reported as 23 µM and 23.1 µM, the Kd (MIF [2]; spread of four measurements, read-out: Kd, results of repeated measurements) is reported as 20 to 30 µM and the Ki (MIF [3]; HPP substrate, new naphthyridinones and ISO-1, read-out: Experimental Inhibition Constants Ki) is reported as 30 µM and 30.1 µM. For the same compound, the Ki (MIF [3]; spread of nine measurements, read-out: Ki, results of repeated measurements) was 21 to 39 µM.
In the case of `OCCOc1ccc2nc(-c3cn(-c4ccc(O)cc4)nn3)ccc2c1` [Compound 1b], the “Aqueous Solubility S” value [1] is given as 2.6 µg/mL.
In the case of `O=C(O)COc1ccc2nc(-c3cn(-c4ccc(O)c(F)c4)nn3)ccc2c1` [Compound 2c], the “Aqueous Solubility S” value [1] is given as 37.0 µg/mL.
Work on `O=C(O)Cn1ccc2ccc(-c3cn(-c4ccc(O)c(F)c4)nn3)nc2c1=O` [Compound 4b, 2-(2-(1-(3-fluoro-4-hydroxyphenyl)-1H-1,2,3-triazol-4-yl)-8-oxo-1,7-naphthyridin-7(8H)-yl)acetic acid] yielded a solubility [4] of 288 µg/mL (≈ 755 µM).
For `O=C(O)COc1ccc2nc(-c3cn(-c4ccc(O)cc4)nn3)ccc2c1` [Compound 1f], the “Aqueous Solubility S” value [1] is listed as 365 µg/mL.
